According to patent US20240000680A1, “MONO-HYDROXY OR DI-HYDROXY DERIVATIVES OF POLYUNSATURATED FATTY ACIDS, PRODUCTION METHOD THEREFOR, AND USE THEREOF” (KOLON INDUSTRIES, INC., priority 2019, published 2024):
Several values for one entry are separate records, joined by “and”; a condition that tells them apart may be missing. Equal values may be shown once.

Assays:
Type in all cases: cell-based
IL-6 [1] = test: IL-6 expression in UVB-irradiated HaCaT human keratinocytes (ELISA), Example 6; conditions: for IL-6 expression (% of control) Average: UVB +; for IL-6 expression (% of control) Average / expression of IL-6 (Table 7, single component vs complex composition): Con(−) = 100; for reduction of expression of IL-6 compared to Con(−): after UVB irradiation; for expression of IL-6 (Table 7, single component vs complex composition): UVB 20 mJ/cm^2
Description: In order to identify the synergistic anti-inflammation relieving effect of the SPMs complex composition, the complex compositions (Complexes 1 to 3) of 17-HDHA, Resolvin D5, and Protectin DX and each SPM single material were treated with HaCaT cells, which are human keratinocytes to identify changes in IL-6 expression.
Specifically, first, human keratinocytes were aliquoted in a 48-well plate at a concentration of 4×10^4 cells/well and cultured at 5% CO2, 37° C. for 24 hours, and then the medium was removed and the starvation state was maintained with DMEM Serum Free media for 24 hours.
The SPMs complex composition was diluted with DMEM (FBS 2%) to make 0.5, 1, 2, and 5 μg/ml, and then cultured as above and treated with human keratinocytes from which the medium was removed for 1 hour. […] In addition, after collecting the medium, the amount of IL-6 was measured using Human IL-6 DuoSet ELISA (R&D system). The cells adhering to the bottom were washed with DPBS, dissolved with 1N NaOH, and the amount of protein was measured through BCA analysis to measure the amount of IL-6 synthesized per a given protein. In this connection, the IL-6 expression inhibitory effect of the SPMs complex composition of the present invention and each single component was identified by using a case in which nothing was treated as Con(−) and a case in which 10 μM of hydrocortisone was treated as Con(+) after UVB irradiation.

procollagen = test: Procollagen synthesis in human dermal fibroblasts (PIP EIA), Example 7; conditions: for Procollagen synthesis (% of control) Average: 24 hours; for Procollagen synthesis (% of control) Average / amount of procollagen (Table 10, single component vs complex composition): untreated control = 100; for amount of procollagen compared to untreated control group: single components, Table 8 concentrations; for amount of procollagen (Table 10, single component vs complex composition): concentration not given in Table 10; for amount of procollagen compared to positive control group (50 μM of retinyl palmitate): at a concentration of 1 μg/ml or more
Source text: Collagen, a major component of the extracellular matrix, is synthesized in the form of a precursor called procollagen. The procollagen is known to be cut and isolated from collagen molecules when a polymerization reaction occurs. By measuring the amount of procollagen, the degree of collagen biosynthesis in the cells may be estimated.
[…] In this connection, the effect of the SPM single component and its complex compositions (compositions 1 to 3) was identified by using a case in which nothing was treated as an untreated control group and a case in which 50 μM of retinyl palmitate was treated as Con(+).

TNF-α [2] = test: TNF-α expression inhibition in UVB-irradiated human keratinocytes, Example 9; conditions: 10 μM; UVB 160 mJ/cm^2; 24 hours
Description: Specifically, human keratinocytes were aliquoted in a 48-well plate at a concentration of 4×10^4 cells/well and cultured for 24 hours at 5% CO2 and 37° C., then the medium was removed and starvation state was maintained with DMEM Serum Free media for 24 hours.
The composition 2 was diluted with DMEM (2% FBS) to make 0.5, 1, 2, and 5 μg/ml, and then cultured as above and treated with human keratinocytes from which the medium was removed for 1 hour. Then, for TNF-α expression, the medium was exchanged with 250 μl of DPBS (WelGENE), irradiated with 160 mJ/cm^2 of UVB, and then treated with the SPMs again and cultured for 24 hours. In addition, after collecting the medium, the amount of TNF-α was measured using Human TNF-α DuoSet ELISA (R&D system), respectively. The cells adhering to the bottom were washed with DPBS, dissolved with 1N NaOH, and the amount of protein was measured through BCA analysis to measure the amount of TNF-α synthesized per a given protein. In this connection, the effect of the SPMs complex composition was identified by using a case in which nothing was treated as a negative control group and a case in which 10 μM of hydrocortisone was treated as a positive control group.

TNF-α [3] = test: TNF-α expression inhibition in UVB-irradiated human keratinocytes (ELISA), Example 4-2; conditions: 10 ppm; UVB 160 mJ/cm^2; 24 hours
Description: (§1) Human keratinocytes were aliquoted in a 48-well plate at a concentration of 4×10^4 cells/well and cultured for 24 hours at 5% CO2 and 37° C., then the medium was removed and starvation state was maintained with DMEM Serum Free media for 24 hours.
(§2) The SPM 1 and SPM 2 were diluted with DMEM (2% FBS) to make 1 ppm, and then diluted sequentially to 0.1, 0.01 and 0.001 ppm, and then cultured as above and treated with human keratinocytes from which the medium was removed for 1 hour. Then, for TNF-α or IL-6 expression, the medium was exchanged with 250 μl of DPBS (WelGENE), irradiated with 160 mJ/cm^2 of UVB, and then treated with the SPM 1 and SPM 2 again and cultured for 24 hours. In addition, after collecting the medium, the amount of TNF-α was measured using Human TNF-α DuoSet ELISA (R&D system), and the amount of IL-6 was measured using Human IL-6 DuoSet ELISA (R&D system), respectively. The cells adhering to the bottom were washed with DPBS, dissolved with 1N NaOH, and the amount of protein was measured through BCA analysis to measure the amount of TNF-α or IL-6 synthesized per a given protein. In this connection, the effect of the two reaction products SPM 1 and SPM 2 was identified by using a case in which nothing was treated as a negative control group and a case in which 10 ppm of dexamethasone was treated as a positive control group.

IL-6 [4] = test: IL-6 expression inhibition in UVB-irradiated human keratinocytes (ELISA), Example 4-2; conditions: 10 ppm; UVB 160 mJ/cm^2; 24 hours
Description: as §1, §2

MMP-1 [5] = test: Collagenase (MMP-1) expression inhibition in UVB-irradiated human dermal fibroblasts (ELISA), Example 4-4; conditions: 6 ppm; UVB 100 mJ/cm^2; 48 hours
Description: (§3) MMPs (matrix metalloproteinases) are enzymes with proteolytic activity, and by decomposing proteins constituting the extracellular matrix, they have an important effect on the binding of cells and proteins constituting the extracellular matrix. There are 28 types of MMPs, of which MMP-1 is an enzyme that decomposes collagen. In this example, the expression level of MMP-1 in cells was identified.
After culturing human dermal fibroblasts for 24 hours, the medium was exchanged with DPBS (WelGENE) at a concentration of 250 μl/well, and irradiated with 100 mJ/cm^2 of UVB. Then, the SPM 1 and SPM 2 were treated with DMEM (2% FBS) diluted to a concentration of 0.01, 0,1 and 1 ppm, respectively, and cultured for 48 hours. After collecting the cultured cell medium, the amount of MMP-1 was measured using a human total MMP-1 ELISA kit (R&D systems, DY901). At this connection, the effect of the two reaction products SPM 1 and SPM 2 was identified by using a case in which nothing was treated as a negative control group and a case in which 6 ppm of retinoic acid was treated as a positive control group.

MMP-1 [6] = test: Collagenase (MMP-1) expression inhibition in UVB-irradiated human dermal fibroblasts, Example 8; conditions: 20 μM; UVB 100 mJ/cm^2; 48 hours
Description: as §3
Specifically, after culturing human dermal fibroblasts for 24 hours, the medium was exchanged with DPBS (WelGENE) at a concentration of 250 μl/well, and irradiated with 100 mJ/cm^2 of UVB. Then, the composition 2 was treated with DMEM (2% FBS) diluted to a concentration of 0.1, 1, 2, and 5 ppm, respectively, and cultured for 48 hours. After collecting the cultured cell medium, the amount of MMP-1 was measured using a human total MMP-1 ELISA kit (R&D systems, DY901). At this connection, the effect of composition 2 was identified by using a case in which nothing was treated as a negative control group and a case in which 20 μM of retinoic acid was treated as a positive control group.

filaggrin = test: Filaggrin gene expression in human keratinocytes (RT-PCR), Example 12; conditions: 50 ppm
Source text: (§4) Filaggrin, loricrin, and involucrin are known as core proteins constituting the skin barrier. Among them, filaggrin is a protein produced by decomposition of profilagrin, which constitutes keratohyalin granule (KG) present in granule cells of the epidermis, and plays an important role in the skin barrier by aggregating keratin filaments in keratinocytes. Accordingly, it was attempted to identify the skin barrier strengthening effect by identifying he expression of filaggrin and loricrin by the sample.
(§5) Human keratinocytes were cultured in DMEM medium under the same conditions as in Example 9. In order to identify the gene expression related to skin barrier improvement ability, the cultured cells were treated with the SPMs complex composition of the present invention by concentration and cultured, and then RNA was extracted and RT-PCR was performed. The amplified gene was analyzed using the Gel documentation system and Image J program.

loricrin = test: Loricrin gene expression in human keratinocytes (RT-PCR), Example 12; conditions: 50 ppm
Source text: as §4, §5

Compound	IL-6 expression (% of control) Average (IL-6 [1]; 0.1 μg/ml)	IL-6 expression (% of control) Average (IL-6 [1]; 1 μg/ml)	IL-6 expression (% of control) Average (IL-6 [1]; 2 μg/ml)	reduction of expression of IL-6 compared to Con(−) (IL-6 [1]; 2 μg/ml) [%]	IL-6 expression (% of control) Average (IL-6 [1]; 5 μg/ml)	expression of IL-6 (Table 7, single component vs complex composition) (IL-6 [1]; 2 μg/ml)	Procollagen synthesis (% of control) Average (procollagen; 0.01 μg/ml)	Procollagen synthesis (% of control) Average (procollagen; 0.1 μg/ml)	Procollagen synthesis (% of control) Average (procollagen; 1 μg/ml)	Procollagen synthesis (% of control) Average (procollagen; 2 μg/ml)	amount of procollagen compared to untreated control group (procollagen)	amount of procollagen (Table 10, single component vs complex composition) (procollagen)	other results
CC/C=C\CC(O)/C=C/C=C\C/C=C\C/C=C\C/C=C\CCC(=O)O (racemic) [Composition 17S-HDHA, (±) 17-hydroxy (dihydroxy)-4Z, 7Z, 10Z, 13Z, 15E, 19Z-docosahexaenoic acid]	89.63 % of control	83 % of control	89.17 % of control	10.8	81.66 % of control	89.17	212.76 % of control	237.76 % of control	235.8 % of control	255.32 % of control	greater amount of procollagen than the untreated control group	255.32	
C[C@]12CCC(=O)C=C1CC[C@@H]1[C@@H]2[C@@H](O)C[C@@]2(C)[C@H]1CC[C@]2(O)C(=O)CO [Con(+) H.C., hydrocortisone, reference compound]													IL-6 expression (% of control) Average (IL-6 [1]; 10 μM): 31.23 % of control and 42.82 % of control; reduction of UVB-increased expression of TNF-α (TNF-α [2]): about 52%
CCCCCCCCCCCCCCCC(=O)OC/C=C(C)/C=C/C=C(C)/C=C/C1=C(C)CCCC1(C)C [Con(+) R.P., retinyl palmitate, reference compound]													Procollagen synthesis (% of control) Average (procollagen; 50 μM): 249.88 % of control and 240.2 % of control
CC/C=C\C[C@H](O)/C=C/C=C\C=C\[C@@H](O)C/C=C\C/C=C\CCC(=O)O [PDX, 10S, 17S-dihydroxy-4Z,7Z,11E,13Z,15E,19Z-docosahexaenoic acid]	95.36 % of control	102.69 % of control	88.13 % of control	11.8	86.72 % of control	88.13	237.15 % of control	244.1 % of control	251.41 % of control	254.1 % of control	greater amount of procollagen than the untreated control group	254.1	amount of procollagen compared to positive control group (50 μM of retinyl palmitate) (procollagen): greater amount of procollagen was identified compared to the positive control group
CC/C=C\C[C@H](O)/C=C/C=C\C/C=C\C=C\[C@@H](O)C/C=C\CCC(=O)O [RvD5, 7S, 17S-dihydroxy-4Z, 8E, 10Z, 13Z, 15E, 19Z-docosahexaenoic acid]	99.58 % of control	109.86 % of control	99.49 % of control	0.5	83.38 % of control	99.49	245.68 % of control	248 % of control	249.34 % of control	255.32 % of control	greater amount of procollagen than the untreated control group	255.32	amount of procollagen compared to positive control group (50 μM of retinyl palmitate) (procollagen): greater amount of procollagen was identified compared to the positive control group
C[C@@H]1C[C@H]2[C@@H]3CCC4=CC(=O)C=C[C@]4(C)[C@@]3(F)[C@@H](O)C[C@]2(C)[C@@]1(O)C(=O)CO [dexamethasone]													reduction of UVB-increased expression of TNF-α (TNF-α [3]): about 35%; reduction of UVB-increased expression of IL-6 (IL-6 [4]): about 88%
CC1=C(/C=C/C(C)=C/C=C/C(C)=C/C(=O)O)C(C)(C)CCC1 [retinoic acid]													reduction of UVB-increased expression of MMP-1 (MMP-1 [5]): about 70%; reduction of UVB-increased expression of MMP-1 (MMP-1 [6]): about 70%
hyaluronic acid													increase in expression of filaggrin (filaggrin): 52.6%; increase in expression of loricrin (loricrin): 97.7%
